According to PubChem BioAssay (NCI):
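Growth conditions: 96-well plates. Treatment: test compound, 48 hours, 5 concentrations. Analysis: linear interpolation between bracketing concentrations; unreached endpoints set to highest concentration. TGI: concentration producing complete growth inhibition.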

Key:
Assay in all cases: NCI-60 cell line screen, 48 h
NCI/ADR-RES ovarian = system: NCI/ADR-RES ovarian
HT29 colon = system: HT29 colon
EKVX NSCLC = system: EKVX NSCLC
HCT-15 colon = system: HCT-15 colon
T-47D breast = system: T-47D breast
OVCAR-5 ovarian = system: OVCAR-5 ovarian
SNB-75 CNS = system: SNB-75 CNS
CCRF-CEM leukemia = system: CCRF-CEM leukemia
A549 NSCLC = system: A549 NSCLC
TK-10 renal = system: TK-10 renal
786-0 renal = system: 786-0 renal
SF-295 CNS = system: SF-295 CNS
SNB-19 CNS = system: SNB-19 CNS
CAKI-1 renal = system: CAKI-1 renal
NCI-H522 lung = system: NCI-H522 lung
A498 renal = system: A498 renal
MDA-MB-231 breast = system: MDA-MB-231 breast
DU-145 prostate = system: DU-145 prostate
UO-31 renal = system: UO-31 renal
SK-OV-3 ovarian = system: SK-OV-3 ovarian
MALME-3M melanoma = system: MALME-3M melanoma
SK-MEL-5 melanoma = system: SK-MEL-5 melanoma
U251 CNS = system: U251 CNS
HS 578T breast = system: HS 578T breast
MDA-N = system: MDA-N
BT-549 breast = system: BT-549 breast
SF-268 CNS = system: SF-268 CNS
MOLT-4 leukemia = system: MOLT-4 leukemia
OVCAR-4 ovarian = system: OVCAR-4 ovarian
RXF 393 renal = system: RXF 393 renal
HCT-116 colon = system: HCT-116 colon
HOP-62 NSCLC = system: HOP-62 NSCLC
SK-MEL-28 melanoma = system: SK-MEL-28 melanoma
LOX IMVI melanoma = system: LOX IMVI melanoma
SF-539 CNS = system: SF-539 CNS
COLO 205 colon = system: COLO 205 colon
NCI-H23 lung = system: NCI-H23 lung
SK-MEL-2 melanoma = system: SK-MEL-2 melanoma
PC-3 prostate = system: PC-3 prostate
NCI-H226 lung = system: NCI-H226 lung
MCF7 breast = system: MCF7 breast
OVCAR-8 ovarian = system: OVCAR-8 ovarian
HL-60(TB) leukemia = system: HL-60(TB) leukemia
UACC-257 melanoma = system: UACC-257 melanoma
ACHN renal = system: ACHN renal
MDA-MB-435 = system: MDA-MB-435
SW-620 colon = system: SW-620 colon
IGROV1 ovarian = system: IGROV1 ovarian
SN12C renal = system: SN12C renal
KM12 colon = system: KM12 colon
M14 melanoma = system: M14 melanoma
UACC-62 melanoma = system: UACC-62 melanoma
K-562 leukemia = system: K-562 leukemia
OVCAR-3 ovarian = system: OVCAR-3 ovarian
RPMI-8226 leukemia = system: RPMI-8226 leukemia
SR leukemia = system: SR leukemia
NCI-H460 lung = system: NCI-H460 lung
HCC-2998 colon = system: HCC-2998 colon

CCSc1cc(C(=O)OC)c2n(c1=O)CCCC2
TGI (NCI/ADR-RES ovarian): > 100 µM
TGI (HT29 colon): > 100 µM
TGI (EKVX NSCLC): > 100 µM
TGI (HCT-15 colon): > 100 µM
TGI (T-47D breast): > 100 µM
TGI (OVCAR-5 ovarian): > 100 µM
TGI (SNB-75 CNS): > 100 µM
TGI (CCRF-CEM leukemia): > 100 µM
TGI (A549 NSCLC): > 100 µM
TGI (TK-10 renal): > 100 µM
TGI (786-0 renal): > 100 µM
TGI (SF-295 CNS): > 100 µM
TGI (SNB-19 CNS): > 100 µM
TGI (CAKI-1 renal): > 100 µM
TGI (NCI-H522 lung): > 100 µM
TGI (A498 renal): > 100 µM
TGI (MDA-MB-231 breast): > 100 µM
TGI (DU-145 prostate): > 100 µM
TGI (UO-31 renal): > 100 µM
TGI (SK-OV-3 ovarian): > 100 µM
TGI (MALME-3M melanoma): > 100 µM
TGI (SK-MEL-5 melanoma): > 100 µM
TGI (U251 CNS): > 100 µM
TGI (HS 578T breast): > 100 µM
TGI (MDA-N): > 100 µM
TGI (BT-549 breast): > 100 µM
TGI (SF-268 CNS): > 100 µM
TGI (MOLT-4 leukemia): > 100 µM
TGI (OVCAR-4 ovarian): > 100 µM
TGI (RXF 393 renal): > 100 µM
TGI (HCT-116 colon): > 100 µM
TGI (HOP-62 NSCLC): > 100 µM
TGI (SK-MEL-28 melanoma): > 100 µM
TGI (LOX IMVI melanoma): > 100 µM
TGI (SF-539 CNS): > 100 µM
TGI (COLO 205 colon): > 100 µM
TGI (NCI-H23 lung): > 100 µM
TGI (SK-MEL-2 melanoma): > 100 µM
TGI (PC-3 prostate): > 100 µM
TGI (NCI-H226 lung): > 100 µM
TGI (MCF7 breast): > 100 µM
TGI (OVCAR-8 ovarian): > 100 µM
TGI (HL-60(TB) leukemia): > 100 µM
TGI (UACC-257 melanoma): > 100 µM
TGI (ACHN renal): > 100 µM
TGI (MDA-MB-435): > 100 µM
TGI (SW-620 colon): > 100 µM
TGI (IGROV1 ovarian): > 100 µM
TGI (SN12C renal): > 100 µM
TGI (KM12 colon): > 100 µM
TGI (M14 melanoma): > 100 µM
TGI (UACC-62 melanoma): > 100 µM

CC1=CC(O)(c2ccccc2)C(N2CCOCC2)N1O (centres undefined)
TGI (NCI/ADR-RES ovarian): > 100 µM
TGI (HT29 colon): > 100 µM
TGI (EKVX NSCLC): > 100 µM
TGI (HCT-15 colon): > 100 µM
TGI (T-47D breast): > 100 µM
TGI (OVCAR-5 ovarian): > 100 µM
TGI (CCRF-CEM leukemia): > 100 µM
TGI (A549 NSCLC): > 100 µM
TGI (TK-10 renal): > 100 µM
TGI (786-0 renal): > 100 µM
TGI (K-562 leukemia): > 100 µM
TGI (OVCAR-3 ovarian): > 100 µM
TGI (SF-295 CNS): > 100 µM
TGI (SNB-19 CNS): > 100 µM
TGI (CAKI-1 renal): > 100 µM
TGI (NCI-H522 lung): > 100 µM
TGI (MDA-MB-231 breast): > 100 µM
TGI (UO-31 renal): > 100 µM
TGI (SK-OV-3 ovarian): > 100 µM
TGI (MALME-3M melanoma): > 100 µM
TGI (SK-MEL-5 melanoma): > 100 µM
TGI (U251 CNS): > 100 µM
TGI (HS 578T breast): > 100 µM
TGI (MDA-N): > 100 µM
TGI (BT-549 breast): > 100 µM
TGI (SF-268 CNS): > 100 µM
TGI (MOLT-4 leukemia): > 100 µM
TGI (RPMI-8226 leukemia): > 100 µM
TGI (OVCAR-4 ovarian): > 100 µM
TGI (SR leukemia): > 100 µM
TGI (HCT-116 colon): > 100 µM
TGI (NCI-H460 lung): > 100 µM
TGI (HOP-62 NSCLC): > 100 µM
TGI (SK-MEL-28 melanoma): > 100 µM
TGI (LOX IMVI melanoma): > 100 µM
TGI (SF-539 CNS): > 100 µM
TGI (COLO 205 colon): > 100 µM
TGI (NCI-H23 lung): > 100 µM
TGI (SK-MEL-2 melanoma): > 100 µM
TGI (PC-3 prostate): > 100 µM
TGI (HCC-2998 colon): > 100 µM
TGI (NCI-H226 lung): > 100 µM
TGI (MCF7 breast): > 100 µM
TGI (OVCAR-8 ovarian): > 100 µM
TGI (UACC-257 melanoma): > 100 µM
TGI (ACHN renal): > 100 µM
TGI (MDA-MB-435): > 100 µM
TGI (SW-620 colon): > 100 µM
TGI (IGROV1 ovarian): > 100 µM
TGI (SN12C renal): > 100 µM
TGI (KM12 colon): > 100 µM
TGI (M14 melanoma): > 100 µM

CNC(=O)Oc1ccc(C(=S)Nc2ccc(Br)cc2)cc1
TGI (NCI/ADR-RES ovarian): 54.7 µM
TGI (HT29 colon): 44.8 µM
TGI (EKVX NSCLC): 42 µM
TGI (HCT-15 colon): 43.1 µM
TGI (T-47D breast): 80.2 µM
TGI (OVCAR-5 ovarian): 77.4 µM
TGI (CCRF-CEM leukemia): 18.3 µM
TGI (A549 NSCLC): > 100 µM
TGI (786-0 renal): 60.5 µM
TGI (K-562 leukemia): 76.1 µM
TGI (OVCAR-3 ovarian): 49.4 µM
TGI (SNB-19 CNS): > 100 µM
TGI (CAKI-1 renal): 51.3 µM
TGI (NCI-H522 lung): 31.2 µM
TGI (A498 renal): 53.3 µM
TGI (DU-145 prostate): 81 µM
TGI (UO-31 renal): 60 µM
TGI (SK-OV-3 ovarian): > 100 µM
TGI (MALME-3M melanoma): 98.8 µM
TGI (SK-MEL-5 melanoma): 34.9 µM
TGI (U251 CNS): 74.8 µM
TGI (HS 578T breast): > 100 µM
TGI (MDA-N): 57.3 µM
TGI (BT-549 breast): 44.2 µM
TGI (SF-268 CNS): > 100 µM
TGI (MOLT-4 leukemia): 40.4 µM
TGI (RPMI-8226 leukemia): > 100 µM
TGI (OVCAR-4 ovarian): 77.1 µM
TGI (SR leukemia): 46.1 µM
TGI (HCT-116 colon): 46.1 µM
TGI (HOP-62 NSCLC): > 100 µM
TGI (SK-MEL-28 melanoma): 62.7 µM
TGI (LOX IMVI melanoma): 27 µM
TGI (SF-539 CNS): 47.2 µM
TGI (COLO 205 colon): 39.2 µM
TGI (NCI-H23 lung): 38.3 µM
TGI (SK-MEL-2 melanoma): 46 µM
TGI (PC-3 prostate): 83.3 µM
TGI (HCC-2998 colon): 41.4 µM
TGI (MCF7 breast): 83.4 µM
TGI (OVCAR-8 ovarian): 22.4 µM
TGI (HL-60(TB) leukemia): 24.8 µM
TGI (UACC-257 melanoma): > 100 µM
TGI (ACHN renal): > 100 µM
TGI (MDA-MB-435): 63.9 µM
TGI (SW-620 colon): > 100 µM
TGI (IGROV1 ovarian): 18.7 µM
TGI (KM12 colon): 35.9 µM
TGI (M14 melanoma): 46.4 µM
TGI (UACC-62 melanoma): 30.1 µM
